Converted amounts (≈) assume the structure as drawn.
Assays:
Human alphaherpesvirus 1 = test: Antiviral activity against Human herpesvirus 1 infected African green monkey Vero cells assessed as protection against virus-induced cytopathic effect after 3 days by plaque reduction assay; type: functional, organism-based; settings: Human alphaherpesvirus 1, Vero, 72 h
[1] = Selectivity index, ratio of CC50 for african green monkey Vero cells to EC50 for HSV1 infected in African green monkey Vero cells
[2] = Cytotoxicity against Chlorocebus aethiops (African green monkey) Vero cells assessed as cell viability after 3 days by Alamar blue assay; type: cell-based; settings: chlorocebus sabaeus

Structure (SMILES)	EC50 (Human alphaherpesvirus 1) [µg/mL]	Ratio CC50/EC50 [1]	CC50 at 72 h [2] [µg/mL]
COc1ccc(Nc2nc(N)nc(CSc3nnc(-c4ccccc4)n3/N=C/c3ccccc3)n2)cc1	8 (≈ 15.7 µM)	188	1500 (≈ 2940 µM)
Nc1nc(CSc2nc3ccccc3[nH]2)nc(Nc2ccc(Cl)cc2)n1	8.5 (≈ 22.1 µM)	175	1500 (≈ 3910 µM)
Cc1ccc(Nc2nc(N)nc(CSc3nc4cc(C)ccc4[nH]3)n2)cc1	> 10	–	–
Cc1ccccc1Nc1nc(N)nc(CSc2nc3ccccc3[nH]2)n1	9 (≈ 24.8 µM)	–	> 2000
Cc1ccc(Nc2nc(N)nc(CSc3nc4ccccc4[nH]3)n2)cc1	> 10	–	–
Nc1nc2c(ncn2COCCO)c(=O)[nH]1 [ACYCLOVIR]	1.5 (≈ 6.66 µM)	850	1280 (≈ 5660 µM)
COc1ccc(Nc2nc(N)nc(CSc3nc4ccccc4[nH]3)n2)cc1	> 10	–	–
Cc1ccccc1Nc1nc(N)nc(CSc2nnc(-c3ccccc3)n2/N=C/c2ccc(Br)cc2)n1	5 (≈ 8.73 µM)	300	1500 (≈ 2620 µM)
Cc1ccccc1Nc1nc(N)nc(CSc2nnc(-c3ccccc3)n2/N=C/c2ccccc2)n1	3.5 (≈ 7.09 µM)	358	1250 (≈ 2530 µM)
Cc1ccccc1Nc1nc(N)nc(CSc2nnc(-c3ccccc3)n2-c2ccccc2)n1	7.5 (≈ 16.1 µM)	234	1750 (≈ 3750 µM)
COc1ccc(Nc2nc(N)nc(CSc3nnc(-c4ccncc4)n3-c3ccccc3)n2)cc1	7 (≈ 14.5 µM)	215	1500 (≈ 3100 µM)
COc1ccc(Nc2nc(N)nc(CSc3nnc(-c4ccccc4)n3-c3ccccc3)n2)cc1	> 10	–	–
Cc1ccc2[nH]c(SCc3nc(N)nc(Nc4ccccc4)n3)nc2c1	> 10	–	–
Cc1ccc2[nH]c(SCc3nc(N)nc(Nc4ccccc4C)n3)nc2c1	> 10	–	–
Cc1ccccc1Nc1nc(N)nc(CSc2nnc(-c3ccncc3)n2-c2ccccc2)n1	6 (≈ 12.8 µM)	275	1650 (≈ 3530 µM)
Nc1nc(CSc2nc3ccccc3[nH]2)nc(Nc2ccccc2)n1	> 10	–	–
